Data: publication PMC2009897, “Comparison of mutagenesis and malignant transformation by dihydrodiols from benz[a]anthracene and 7,12-dimethylbenz[a]anthracene” (British Journal of Cancer, 1979)
Values joined by “and” are separate entries in the source; they are usually repeats but may differ in a detail not shown here. Identical values can stand only once. Like-named read-outs stand apart in the source and are kept apart here.

Assays:
[1] = tested on: Salmonella typhimurium TA100; settings: cited from earlier work; for Mutagenic activity in Salmonella typhimurium TA100: presence of mono-oxygenase systems, ref Wood et al., 1976; for Microsome-mediated mutagenic activity in S. typhimurium TA100: ref Malaveille et al., 1978
[2] = tested on: M2 mouse fibroblasts; experiment: Plating efficiency of M2 mouse fibroblasts; type: cell-based
[3] = tested on: V79 Chinese hamster cells; experiment: Cytotoxicity (plating efficiency) in V79 Chinese hamster cells; type: cell-based
[4] = tested on: V79 cells; parameters: method as in Slaga et al., 1978; settings: presence of mono-oxygenase systems; ref Slaga et al., 1978; cited from earlier work
[5] = tested on: mouse skin; settings: cited from earlier work
[6] = tested on: newborn mice; parameters: method as in Wislocki et al., 1976; settings: ref Wislocki et al., 1976; cited from earlier work
[7] = tested on: C3H/HeJ mice; settings: 106 cells from 2 clones transformed by the compound, 3 mice/clone (6 mice), five weeks after injection
[8] = tested on: M2 mouse fibroblasts
[9] = tested on: M2 mouse fibroblasts; settings: cited from earlier work
[10] = tested on: V79 Chinese hamster cells; settings: ref Wood et al. (1977a); cited from earlier work
[11] = tested on: V79 Chinese hamster cells

O[C@@H]1C=Cc2ccc3cc4ccccc4cc3c2[C@H]1O (relative stereo) [trans-1,2-Dihydro-1,2-dihydroxy BA, trans-1,2-Dihydro-1,2-dihydroxy-BA]
Mutagenic activity in Salmonella typhimurium TA100 [1]: not found to be active
Plating efficiency (%) in M2 cells ([2]; 1.2 µg/ml, 24 h, Table I): 44%
Plating efficiency (%) in M2 cells ([2]; 2.5 µg/ml, 24 h, Table I): 40%
Plating efficiency (%) in M2 cells ([2]; 5.0 µg/ml, 24 h, Table I): 37%
Plating efficiency (%) in M2 cells ([2]; 10.0 µg/ml, 24 h, Table I): 10%
Plating efficiency (%) in V79 cells ([3]; 1.2 µg/ml, 3 h, Table I): 99%
Plating efficiency (%) in V79 cells ([3]; 2.5 µg/ml, 3 h, Table I): 95%
Plating efficiency (%) in V79 cells ([3]; 5.0 µg/ml, 3 h, Table I): 89%
Plating efficiency (%) in V79 cells ([3]; 10.0 µg/ml, 3 h, Table I): 55%
Mutagenic activity in V79 cells [4]: not found to be active

O[C@@H]1C=Cc2c(ccc3cc4ccccc4cc23)[C@H]1O (relative stereo) [trans-3,4-Dihydro-3,4-dihydroxy BA, trans-3,4-dihydro-3,4-dihydroxy-BA]
Mutagenic activity in Salmonella typhimurium TA100 [1]: active
Plating efficiency (%) in M2 cells ([2]; 2.5 µg/ml, 24 h, Table I): 50%
Plating efficiency (%) in M2 cells ([2]; 5.0 µg/ml, 24 h, Table I): 38%
Plating efficiency (%) in M2 cells ([2]; 10.0 µg/ml, 24 h, Table I): 12%
Initiator of tumours on mouse skin ([5]; ref Wood et al., 1977b, Slaga et al., 1978): highly active
Plating efficiency (%) in V79 cells ([3]; 2.5 µg/ml, 3 h, Table I): 93%
Plating efficiency (%) in V79 cells ([3]; 5.0 µg/ml, 3 h, Table I): 84%
Plating efficiency (%) in V79 cells ([3]; 10.0 µg/ml, 3 h, Table I): 56%
Mutagenic activity in V79 cells [4]: active
Inducer of tumours in newborn mice [6]: highly active

Cc1c2ccccc2c(C)c2c3c(ccc12)[C@@H](O)[C@H](O)C=C3 (relative stereo) [trans-3,4-Dihydro-3,4-dihydroxy-DMBA, trans-3,4-dihydro-3,4-dihydroxy-DMBA]
Animals that developed malignant fibrosarcomas [7]: 6 animals
Microsome-mediated mutagenic activity in S. typhimurium TA100 [1]: high
Plating efficiency (%) in M2 cells ([2]; 0.12 µg/ml, 24 h, Table I): 31%
Plating efficiency (%) in M2 cells ([2]; 0.25 µg/ml, 24 h, Table I): 26%
Plating efficiency (%) in M2 cells ([2]; 0.5 µg/ml, 24 h, Table I): 25%
Plating efficiency (%) in M2 cells ([2]; 1.0 µg/ml, 24 h, Table I): 15%
Initiator of tumours on mouse skin ([5]; ref I. Chouroulinkov, personal communication): acts as an initiator of tumours on mouse skin
Induction of malignant transformation in M2 mouse fibroblasts (result in words) [8]: induced mutations in V79 cells and malignant transformation in M2 mouse fibroblasts
Malignant transformation in M2 cells compared with the parent hydrocarbon [8]: more active than the parent hydrocarbon
Plating efficiency (%) in V79 cells ([3]; 0.12 µg/ml, 3 h, Table I): 67%
Plating efficiency (%) in V79 cells ([3]; 0.25 µg/ml, 3 h, Table I): 58%
Plating efficiency (%) in V79 cells ([3]; 0.5 µg/ml, 3 h, Table I): 50%
Plating efficiency (%) in V79 cells ([3]; 1.0 µg/ml, 3 h, Table I): 43%

O[C@@H]1c2ccccc2-c2cc3ccccc3cc2[C@H]1O (relative stereo) [trans-5,6-Dihydro-5,6-dihydroxy BA, trans-5,6-Dihydro-5,6-dihydroxy-BA]
Plating efficiency (%) in M2 cells ([2]; 2.5 µg/ml, 24 h, Table I): 44%
Plating efficiency (%) in M2 cells ([2]; 5.0 µg/ml, 24 h, Table I): 42%
Plating efficiency (%) in M2 cells ([2]; 10.0 µg/ml, 24 h, Table I): 40%
Plating efficiency (%) in V79 cells ([3]; 2.5 µg/ml, 3 h, Table I): 85%
Plating efficiency (%) in V79 cells ([3]; 5.0 µg/ml, 3 h, Table I): 74%
Plating efficiency (%) in V79 cells ([3]; 10.0 µg/ml, 3 h, Table I): 59%

Cc1c2c(c(C)c3ccccc13)[C@@H](O)[C@H](O)c1ccccc1-2 (relative stereo) [trans-5,6-Dihydro-5,6-dihydroxy-DMBA, trans-5,6-dihydro-5,6-dihydroxy-DMBA]
Plating efficiency (%) in M2 cells ([2]; 1.0 µg/ml, 24 h, Table I): 28%
Plating efficiency (%) in M2 cells ([2]; 5.0 µg/ml, 24 h, Table I): 28%
Plating efficiency (%) in M2 cells ([2]; 10.0 µg/ml, 24 h, Table I): 20%
Induction of malignant transformation in M2 mouse fibroblasts (result in words) [8]: inactive in both test systems
Transformed foci/103 survivors [8]: 0
Transformed foci/dishes treated [8]: 0/10
Plating efficiency (%) in V79 cells ([3]; 1.0 µg/ml, 3 h, Table I): 80%
Plating efficiency (%) in V79 cells ([3]; 5.0 µg/ml, 3 h, Table I): 73%
Plating efficiency (%) in V79 cells ([3]; 10.0 µg/ml, 3 h, Table I): 57%

O[C@@H]1C=Cc2cc3c(ccc4ccccc43)cc2[C@H]1O (relative stereo) [trans-8,9-Dihydro-8,9-dihydroxy-BA, trans-8,9-dihydro-8,9-dihydroxy-BA]
Plating efficiency (%) in M2 cells ([2]; 2.5 µg/ml, 24 h, Table I): 44%
Plating efficiency (%) in M2 cells ([2]; 5.0 µg/ml, 24 h, Table I): 39%
Plating efficiency (%) in M2 cells ([2]; 10.0 µg/ml, 24 h, Table I): 30%
Plating efficiency (%) in V79 cells ([3]; 2.5 µg/ml, 3 h, Table I): 57%
Plating efficiency (%) in V79 cells ([3]; 5.0 µg/ml, 3 h, Table I): 54%
Plating efficiency (%) in V79 cells ([3]; 10.0 µg/ml, 3 h, Table I): 53%

Cc1c2c(c(C)c3c1ccc1ccccc13)C=C[C@@H](O)[C@@H]2O (relative stereo) [trans-8,9-Dihydro-8,9-dihydroxy-DMBA, trans-8,9-dihydro-8,9-dihydroxy-DMBA]
Activity in M2 cells (malignant transformation), earlier observations [9]: active
Microsome-mediated mutagenic activity in S. typhimurium TA100 [1]: some mutagenic activity
Plating efficiency (%) in M2 cells ([2]; 0.25 µg/ml, 24 h, Table I): 26%
Plating efficiency (%) in M2 cells ([2]; 0.5 µg/ml, 24 h, Table I): 22%
Plating efficiency (%) in M2 cells ([2]; 1.0 µg/ml, 24 h, Table I): 7%
Induction of malignant transformation in M2 mouse fibroblasts (result in words) [8]: induced mutations in V79 cells and malignant transformation in M2 mouse fibroblasts
Malignant transformation in M2 cells compared with the parent hydrocarbon [8]: more active than the parent hydrocarbon
Plating efficiency (%) in V79 cells ([3]; 0.25 µg/ml, 3 h, Table I): 62%
Plating efficiency (%) in V79 cells ([3]; 0.5 µg/ml, 3 h, Table I): 45%
Plating efficiency (%) in V79 cells ([3]; 1.0 µg/ml, 3 h, Table I): 32%

O[C@@H]1C=Cc2cc3ccc4ccccc4c3cc2[C@H]1O (relative stereo) [trans-10,11-Dihydro-10,11-dihydroxy-BA, trans-10,11-dihydro-10,11-dihydroxy-BA]
Plating efficiency (%) in M2 cells ([2]; 2.5 µg/ml, 24 h, Table I): 44%
Plating efficiency (%) in M2 cells ([2]; 5.0 µg/ml, 24 h, Table I): 37%
Plating efficiency (%) in M2 cells ([2]; 10.0 µg/ml, 24 h, Table I): 29%

Cc1c2c(c(C)c3c1ccc1ccccc13)[C@@H](O)[C@H](O)C=C2 (relative stereo) [trans-10,11-Dihydro-10,11-dihydroxy-DMBA, trans-10,11-dihydro-10,11-dihydroxy-DMBA]
Plating efficiency (%) in M2 cells ([2]; 0.25 µg/ml, 24 h, Table I): 30%
Plating efficiency (%) in M2 cells ([2]; 0.5 µg/ml, 24 h, Table I): 26%
Plating efficiency (%) in M2 cells ([2]; 1.0 µg/ml, 24 h, Table I): 11%
Induction of malignant transformation in M2 mouse fibroblasts (result in words) [8]: inactive in both test systems
Transformed foci/103 survivors [8]: 0
Plating efficiency (%) in V79 cells ([3]; 0.25 µg/ml, 3 h, Table I): 76%
Plating efficiency (%) in V79 cells ([3]; 0.5 µg/ml, 3 h, Table I): 68%
Plating efficiency (%) in V79 cells ([3]; 1.0 µg/ml, 3 h, Table I): 44%

OC1c2cc3ccc4ccccc4c3cc2C2OC2C1O (single isomer, unassigned) [anti-isomer, benz[a]anthracene 8,9-diol 10,11-oxide]
Induction of mutations in V79 cells, anti versus syn isomer [10]: more active than the syn
Plating efficiency (%) in M2 cells ([2]; 1.2 µg/ml, 24 h, Table II): 26%
Plating efficiency (%) in M2 cells ([2]; 2.5 µg/ml, 24 h, Table II): 12%
Plating efficiency (%) in M2 cells ([2]; 5.0 µg/ml, 24 h, Table II): 6%
Plating efficiency (%) in V79 cells ([3]; 0.6 µg/ml, 3 h, Table II): 57%
Plating efficiency (%) in V79 cells ([3]; 1.2 µg/ml, 3 h, Table II): 48%
Plating efficiency (%) in V79 cells ([3]; 2.5 µg/ml, 3 h, Table II): 41%
Plating efficiency (%) in V79 cells ([3]; 5.0 µg/ml, 3 h, Table II): 35%

OC1c2cc3ccc4ccccc4c3cc2C2OC2C1O (single isomer, unassigned) [syn-isomer, benz[a]anthracene 8,9-diol 10,11-oxide]
Induction of mutations to 8-azaguanine resistance in V79 cells (result in words) [11]: mutagenic
Plating efficiency (%) in M2 cells ([2]; 1.2 µg/ml, 24 h, Table II): 47%
Plating efficiency (%) in M2 cells ([2]; 2.5 µg/ml, 24 h, Table II): 49%
Plating efficiency (%) in M2 cells ([2]; 5.0 µg/ml, 24 h, Table II): 30%
Induction of malignant transformation in M2 mouse fibroblasts (result in words) [8]: inactive
Plating efficiency (%) in V79 cells ([3]; 0.6 µg/ml, 3 h, Table II): 56%
Plating efficiency (%) in V79 cells ([3]; 1.2 µg/ml, 3 h, Table II): 50%
Plating efficiency (%) in V79 cells ([3]; 2.5 µg/ml, 3 h, Table II): 49%
Plating efficiency (%) in V79 cells ([3]; 5.0 µg/ml, 3 h, Table II): 48%

c1ccc2cc3c(ccc4ccccc43)cc2c1 [BA, benz[a]anthracene]
Induction of mutations to 8-azaguanine resistance in V79 cells (result in words) [11]: inactive
Plating efficiency (%) in M2 cells [2]: 32% and 29%
Plating efficiency (%) in V79 cells [3]: 82% and 70%

Cc1c2ccccc2c(C)c2c1ccc1ccccc12 [DMBA, 7,12-dimethylbenz[a]anthracene]
Induction of mutations to 8-azaguanine resistance in V79 cells (result in words) [11]: inactive
Plating efficiency (%) in M2 cells [2]: 26% and 24%
Induction of malignant transformation in M2 mouse fibroblasts (result in words) [8]: some activity
Plating efficiency (%) in V79 cells [3]: 63% and 39%
